Several values for one entry are separate records, joined by “and”; a condition that tells them apart may be missing. Equal values may be shown once.
Experiments:
Type in all cases: in vivo
[1] = tested on: 60% high fat Paigen diet induced NASH mouse model; assay: Short-term Paigen-diet NASH mouse model: liver Oil Red O staining; details: 40 mg/kg p.o. (stopped after 4 administrations), 9 days of diet
[2] = tested on: diet-induced NASH obese insulin resistant mice; assay: DIN mouse model: plasma lipid levels; details: 20 mg/kg, end of treatment
Procedure: (§1) Male C57Bl/6J mice (8 weeks old) were housed in enriched ventilated cages (31×12.5×12.7 cm) throughout the experimental phase. Animals' cages litters were changed at least once a week. Animal were housed 5 per cage on inverted 12-hour light cycle (at 09:00 am lights off), 22±2° C. and 55±10% relative humidity. The acclimation period was 20 days. During the acclimation period, all mice were fed a standard diet (RM1 (E) 801492, SDS) and tap water ad libitum. After the acclimation period, mice were fed with the DIN diet (60% fat, cholesterol enriched) and fructose-enriched tap water ad libitum until the end of the experiment.
(§2) At 6 weeks of diet, mice were 4-hour fasted (09:00 am to 1:00 pm) and blood (150 μl/EDTA) was collected at 01:00 pm by retro-orbital bleeding under isoflurane anesthesia. Mice were then allocated in 2 homogenous groups (n=12/group) according to their plasma levels of ALT (average levels: 685U/L), AST (average levels: 627U/L) and HOMA-IR index (average value: 4.7), into 2 homogenous groups (see values at day 0 in Tables 15A and 15B ALT/AST and Tables 16A and 16B for HOMA-IR). Mice were then treated once daily by oral gavage with vehicle (Group 1) or Compound #37 at 20 mg/kg (Group 2) for 70 days.
To investigate whether Compound #37 improves pre-existing steatosis/NASH pathology, a study was conducted using a 16-week diet-induced NASH mouse model. In this model, mice develop steatosis that progresses with inflammation and fibrosis that mimic many of the observed pathologies in human nonalcoholic fatty liver disease (NAFLD) and NASH (Hebbard & George, 2010). For 6 weeks, mice were fed a high-fat, high-cholesterol diet and provided drinking water containing fructose to induce liver pathology (Charlton et al, 2011). After 6 weeks, the mice were divided into 2 groups with similar mean aspartate aminotransferase (AST) and alanine aminotransferase (ALT) values (n=12 mice), although it should be noted that AST and ALT concentrations within both groups were higher and with greater variability than anticipated (e.g., mean ALT 677 U/L [SD, 401 U/L] in the vehicle control group and 693 U/L [SD, 365 U/L] in the Compound #37 group). After the animals were divided into 2 groups, the diet was continued for 10 additional weeks during which time 1 group received vehicle and the other was treated with 20 mg/kg/day Compound #37.

[3] = Short-term Paigen-diet NASH mouse model: Compound #37 plasma concentration 1 hour after final dose; details: for concentration at 1 h: male, C57Bl/6J, mouse, plasma, oral
Description: After 21 days of treatment, mice were 4-hour fasted (9 am to 1 pm). One hour after the last dosing (noon), blood was collected by retro-orbital bleeding (maximal volume on EDTA) under isoflurane anesthesia to measure plasma triglycerides, total cholesterol, non-esterified fatty acid, ALT and AST. Mice were then sacrificed by cervical dislocation, and livers were harvested and weighed. Liver samples from the same lobe were dissected, frozen, and analyzed as described below.
The Paigen diet in the C57Bl/6J mouse strain typically results in an initial acute weight loss that recovers over time (Hebbard & George, 2011; vendor historical unpublished data). […] Dosing of this group was stopped on day 4 and the surviving mice were sacrificed on day 9, 1 hour after a final dose to analyze drug exposure. […] No mice died in the Compound #37 5 mg/kg/day or vehicle control groups (10 mice each group).
The death of animals in the Compound #37 40 mg/kg/day and 20 mg/kg/day groups appears to be related to synergistic weight loss due to a combination of the Paigen diet and the inappetence effects of Compound #37 observed in repeat-dose toxicity studies in rats and dogs. […] Compound #37 mean plasma concentration 1 hour after final dose administration on day 21 was 20.4 μM (±4.33 μM) and 112 μM (±26.0 μM) for the 5 mg/kg and 20 mg/kg groups, respectively. The Compound #37 mean plasma concentration 1 hour after final dose administration for the 4 animals on day 9 in the 40 mg/kg group was 136 μM (±37.1 μM). These exposures at 1 hour after dosing are approximately 2-fold higher than those observed in healthy mice and may be related to altered Compound #37 metabolism in this acute liver injury model.

[4] = tested on: diet-induced NASH obese insulin resistant mice; assay: DIN mouse model: NAS scores; design: total / steatosis / inflammation / fibrosis / hepatocyte ballooning: scale not given here
Procedure: NAFLD score analysis. A 0.5 cm^3 piece of liver was fixed in 10% formalin for 48-72h, stored in ethanol 70° at 4° C., and processed for eosin/hematoxylin staining and NAFLD score analysis. One section (thickness 3-5 μm) per block was deposited on Superfrost+slides for hematoxylin-eosin staining. Individual slides having a single hepatic lobe section stained with H&E were digitized using a Nanozoomer from Hamamatsu. Sections were evaluated with knowledge of groups. Each section was evaluated and individually scored. A NAFLD scoring system (NAS) adapted from Kleiner et al. (Hepatology 41, 1313-21, 2005), Wu et al. (BMC Vet. Res. 10, 162, 2014), and Lee et al. (J. Lipid Res. 48, 1885-96, 2007). A total of four variables were qualitatively assessed and ranked with a score: (1) hepatocellular steatosis, (2) liver inflammation, (3) lobular fibrosis, and (4) hepatocyte ballooning.
as §1, §2
Each section was evaluated and individually scored using the modified NAFLD scoring system described above.

[5] = tested on: diet-induced NASH obese insulin resistant mice; assay: DIN mouse model: liver oil red O staining (% labeling)
Procedure: as §1, §2
Slides having a single hepatic lobe section stained with H&E and […] were digitized using a Nanozoomer from Hamamatsu. Sections were evaluated with knowledge of groups. […]

[6] = NAS score, 20 mg/kg group, mean, n 11

For CC(C)Cc1cc(-c2nc(-c3ccc(NS(=O)(=O)C(F)(F)F)cc3Cl)cs2)ccn1 [Compound 37, N-(3-chloro-4-(2-(2-isobutylpyridin-4-yl)thiazol-4-yl)phenyl)-1,1,1-trifluoromethanesulfonamide], the “Liver O red Oil staining, % labeling” value ([1]; group mean) was 1.87%, the “Liver O red Oil staining, % labeling” value ([1]; individual animals) was 2.53% and 2.54% and 1.12% and 1.28% and the HDL-cholesterol increase ([2]; p<0.05 vs. vehicle) was 31%. The “plasma HDL cholesterol” value ([2]; group mean, n 11) was 1.42 g/L, the plasma cholesterol ([2]; group mean, n 11) was 1.82 g/L and the “plasma free fatty acids” value ([2]; group mean, n 11) was 0.59 mM. For the same molecule, the plasma triglycerides ([2]; group mean, n 11) was 0.40 g/L, the “plasma HDL cholesterol” value ([2]; individual animals) was 1.65 g/L and 1.68 g/L and 1.10 g/L and 1.47 g/L (2×) and 1.90 g/L and 1.12 g/L and 1.43 g/L and 0.62 g/L and 1.62 g/L and 1.56 g/L and the plasma cholesterol ([2]; individual animals) was 2.49 g/L and 2.36 g/L and 1.95 g/L and 1.67 g/L and 2.12 g/L and 1.38 g/L and 1.62 g/L and 1.15 g/L and 1.57 g/L and 1.86 g/L and 1.90 g/L. For the same molecule, the “plasma free fatty acids” value ([2]; individual animals) was 0.73 mM and 0.63 mM and 0.59 mM (3×) and 0.29 mM and 0.65 mM and 0.56 mM and 0.71 mM and 0.44 mM and 0.67 mM, the plasma triglycerides ([2]; individual animals) was 0.37 g/L (2×) and 0.3 g/L and 0.42 g/L and 0.35 g/L and 0.40 g/L and 0.34 g/L and 0.45 g/L and 0.50 g/L and 0.47 g/L and 0.39 g/L and the “exposure at 1 hour after dosing relative to healthy mice” value ([3]; acute liver injury model vs healthy mice) was “approximately 2 fold”. It also gave a concentration at 1 h ([3]; 5 mg/kg, day 21) of 20.4 µM, a concentration at 1 h ([3]; 20 mg/kg, day 21) of 112 µM and a concentration at 1 h ([3]; 40 mg/kg, day 9, 4 animals) of 136 µM. For the same molecule, the inflammation score increase ([4]; 20 mg/kg, 70 days, p<0.05 vs. vehicle) was 81%, the fibrosis score reduction ([4]; 20 mg/kg, 70 days, p=0.055 vs. vehicle) was 45% and the total ([4]; NAS score, 20 mg/kg group, individual animal, 20 mg/kg) was 7 and 8 and 3 (2×) and 5 (2×) and 6 (4×) and 4. The fibrosis [4, 6] was 0.64, the hepatocyte ballooning [4, 6] was 1.91 and the inflammation [4, 6] was 0.91. For the same molecule, the steatosis [4, 6] was 1.91, the total [4, 6] was 5.36 and the “O red Oil labeling” value ([5]; 20 mg/kg group, mean, n 11) was 12.1%. For the same molecule, the “O red Oil labeling” value ([5]; 20 mg/kg, individual animals) was 12.9% and 15.1% and 0.9% and 18.6% and 19.3% and 21.3% and 0.3% and 8.3% and 19.5% and 13.0% and 4.2%.

Reference: US10183015B2, “Heterocyclic compounds and methods of use” (Medivation Technologies LLC, priority 2015, dated 2019)
